Measured values reported in patent US9409915B2, “Substituted aza-bicyclic imidazole derivatives useful as TRPM8 receptor modulators” (Janssen Pharmaceutica NV, priority 2010, dated 2016).
Counter-ions that a name gives are not always drawn. Like-named read-outs stand apart in the source and are kept apart here.

Target: canine TRPM8 (Canis lupus familiaris, UniProt Q1A7N1)
Test: In vitro canine TRPM8 functional assay (Ca2+-sensitive fluorescent dye, icilin activation)
Format: cell-based
Experimental: The functional activity of representative compounds of the formula (I) of the present invention was quantified by measuring changes in intracellular calcium concentration using a Ca^2+-sensitive fluorescent dye. The changes in fluorescent signal were monitored by a fluorescence plate reader, either a FLIPR™ (Molecular Devices) or FDSS (Hamamatsu).
HEK293 cells stably expressing canine TRPM8 were routinely grown as monolayers in Dulbecco's minimum essential medium supplemented with 10% FBS, 2 mM L-glutamine, 100 units/mL penicillin, 100 ug/mL streptomycin and 400 μg/mL G418. Cells were maintained in 5% CO2 at 37° C. At 24 hr prior to assay, cells were seeded in black wall, clear-base poly-D-lysine coated 384-well plates (BD Biosciences, NJ, USA) at a density of 5,000 cells per well in culture medium and grown overnight in 5% CO2 at 37° C. On assay day, growth media was removed, and cells were loaded with Calcium 3 Dye (Molecular Devices) for 35 min at 37° C., under 5% CO2 and then incubated for 25 min at room temperature and atmosphere. Subsequently, cells were tested for agonist-induced increases in intracellular Ca^2+ levels using FLIPR™ or FDSS. Cells were treated with compounds of the formula (I) at varying concentrations and intracellular Ca^2+ was measured for 5 min prior to the addition of icilin to each well to achieve a final concentration that produces an approximately 80% maximal response.
Maximal fluorescence intensity (FI) achieved upon addition of icilin was exported from the FLIPR™ or FDSS software and further analyzed using GraphPad Prism 3.02 (Graph Pad Software Inc., CA, U.S.A.). Basal FI was subtracted prior to normalizing data to percent of maximal response. Curves were generated using the average of quadruplicate wells for each data point using nonlinear regression of either sigmoidal dose response or sigmoidal dose response (variable slope). Finally, the EC50 and IC50 values were calculated with the best-fit curve determined by GraphPad Prism

[1] = 0.2 μM compound, HEK293 cells stably expressing canine TRPM8, icilin-induced Ca2+ response
[2] = HEK293 cells stably expressing canine TRPM8, icilin-induced Ca2+ response, eight-point concentration-response
[3] = HEK293, 0.2 μM compound, HEK293 cells stably expressing canine TRPM8, icilin-induced Ca2+ response
[4] = 0.2 μM compound, HEK293 cells stably expressing canine TRPM8, icilin-induced Ca2+ response, hydrochloride

Sequence of canine TRPM8 (Q1A7N1 1-1104): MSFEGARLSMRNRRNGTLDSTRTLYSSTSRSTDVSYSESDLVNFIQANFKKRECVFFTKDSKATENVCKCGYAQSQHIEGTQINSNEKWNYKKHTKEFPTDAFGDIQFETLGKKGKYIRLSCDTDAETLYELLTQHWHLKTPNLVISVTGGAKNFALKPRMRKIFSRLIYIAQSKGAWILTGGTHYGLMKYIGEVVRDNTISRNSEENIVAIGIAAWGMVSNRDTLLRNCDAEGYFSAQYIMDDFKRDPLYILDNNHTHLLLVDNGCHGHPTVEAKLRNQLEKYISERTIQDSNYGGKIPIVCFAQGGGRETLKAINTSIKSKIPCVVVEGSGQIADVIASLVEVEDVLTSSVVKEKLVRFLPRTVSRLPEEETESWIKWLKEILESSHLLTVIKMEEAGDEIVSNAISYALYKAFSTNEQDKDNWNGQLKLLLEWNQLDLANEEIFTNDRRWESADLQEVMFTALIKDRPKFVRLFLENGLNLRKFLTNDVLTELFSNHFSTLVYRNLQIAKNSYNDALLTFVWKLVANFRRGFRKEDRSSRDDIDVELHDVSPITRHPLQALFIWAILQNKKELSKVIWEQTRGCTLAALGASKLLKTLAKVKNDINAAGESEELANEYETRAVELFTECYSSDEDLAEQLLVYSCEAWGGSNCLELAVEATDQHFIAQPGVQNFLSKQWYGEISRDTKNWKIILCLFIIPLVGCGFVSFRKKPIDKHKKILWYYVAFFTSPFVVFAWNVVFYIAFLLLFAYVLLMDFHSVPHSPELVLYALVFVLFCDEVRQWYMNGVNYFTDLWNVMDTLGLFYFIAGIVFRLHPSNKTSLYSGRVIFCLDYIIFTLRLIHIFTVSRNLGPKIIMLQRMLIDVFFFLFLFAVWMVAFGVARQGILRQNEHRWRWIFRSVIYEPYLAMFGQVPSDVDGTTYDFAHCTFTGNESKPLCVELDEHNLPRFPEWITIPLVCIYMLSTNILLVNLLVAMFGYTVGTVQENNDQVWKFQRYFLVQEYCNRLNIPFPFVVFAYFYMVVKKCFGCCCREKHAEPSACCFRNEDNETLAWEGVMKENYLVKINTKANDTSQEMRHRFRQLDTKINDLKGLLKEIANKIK

Row | SMILES | inhibition at 0.2 µM [1] [%] | IC50 [2] [µM] | other results
1 | Cn1nc(C(C)(C)C)c(Cl)c1-c1nc2nc(-c3ccccc3C(F)(F)F)ccc2[nH]1 [Compound 32, 2-(5-tert-Butyl-4-chloro-2-methyl-2H-pyrazol-3-yl)-5-(2-trifluoromethyl-phenyl)-1H-imidazo[4,5-b]pyridine hydrochloride] | 100 | 0.0076 | –
2 | Cn1nc(C(C)(C)C)c(Cl)c1-c1nc2nc(-c3ccccc3F)ccc2[nH]1 [Compound 33, 2-(5-tert-Butyl-4-chloro-2-methyl-2H-pyrazol-3-yl)-5-(2-fluoro-phenyl)-1H-imidazo[4,5-b]pyridine hydrochloride] | 98 | 0.04 | –
3 | Cn1nc(C(C)(C)C)cc1-c1nc2nc(-c3ccccc3C(F)(F)F)ccc2[nH]1 [Compound 34, 2-(5-tert-Butyl-2-methyl-2H-pyrazol-3-yl)-5-(2-trifluoromethyl-phenyl)-1H-imidazo[4,5-b]pyridine] | 89 | 0.077 | –
4 | Cc1nc(-c2ccccc2C(F)(F)F)nc2nc(-c3cc(C(C)(C)C)nn3C)[nH]c12 [Compound 35, 8-(5-tert-Butyl-2-methyl-2H-pyrazol-3-yl)-6-methyl-2-(2-trifluoromethyl-phenyl)-7H-purine trifluoroacetic acid salt] | 67 | – | –
5 | Cn1nc(C(C)(C)C)cc1-c1nc2nc(-c3ccccc3F)ccc2[nH]1 [Compound 36, 2-(5-tert-Butyl-2-methyl-2H-pyrazol-3-yl)-5-(2-fluoro-phenyl)-1H-imidazo[4,5-b]pyridine] | 26 | – | –
6 | Cn1nc(C(C)(C)C)cc1-c1nc2cc(-c3ccccc3OC(F)(F)F)ncc2[nH]1 [Compound 39, 2-(5-tert-Butyl-2-methyl-2H-pyrazol-3-yl)-6-(2-trifluoromethoxy-phenyl)-3H-imidazo[4,5-c]pyridine hydrochloride] | – | 0.075 | inhibition at 0.2 µM [3]: 69%
7 | Cl.Cn1nc(C(C)(C)C)cc1-c1nc2cc(-c3ccccc3C(F)(F)F)ncc2[nH]1 [Compound 40, 2-(5-tert-Butyl-2-methyl-2H-pyrazol-3-yl)-6-(2-trifluoromethyl-phenyl)-3H-imidazo[4,5c]pyridine hydrochloride] | – | – | % Inh @ 0.2 μM: 86%; IC50: 0.059 µM
8 | Cn1nc(C(C)(C)C)cc1-c1nc2cc(-c3ccccc3Cl)ncc2[nH]1 [Compound 41, 2-(5-tert-Butyl-2-methyl-2H-pyrazol-3-yl)-6-(2-chloro-phenyl)-3H-imidazo[4,5-c]pyridine hydrochloride] | 94 | 0.051 | –
9 | Cn1nc(C(C)(C)C)cc1-c1nc2cc(-c3ccccc3F)ncc2[nH]1 [Compound 42, 2-(5-tert-Butyl-2-methyl-2H-pyrazol-3-yl)-6-(2-fluoro-phenyl)-3H-imidazo[4,5-c]pyridine hydrochloride] | 75 | 0.059 | –
10 | Cl.Cn1nc(C(C)(C)C)c(Cl)c1-c1nc2cc(-c3ccccc3F)ncc2[nH]1 [Compound 43, 2-(5-tert-Butyl-4-chloro-2-methyl-2H-pyrazol-3-yl)-6-(2-fluoro-phenyl)-3H-imidazo[4,5-c]pyridine hydrochloride] | – | 0.022 | % Inh @ 0.2 μM [4]: 100%
11 | Cn1nc(C(C)(C)C)c(C#N)c1-c1nc2cc(-c3ccccc3F)ncc2[nH]1 [Compound 44, 3-tert-Butyl-5-[6-(2-fluoro-phenyl)-3H-imidazo[4,5-c]pyridin-2-yl]-1-methyl-1H-pyrazole-4-carbonitrile hydrochloride] | 98 | 0.037 | –
12 | Cn1nc(C(C)(C)C)c(C#N)c1-c1nc2cc(-c3ccccc3C(F)(F)F)ncc2[nH]1 [Compound 45, 3-tert-Butyl-1-methyl-5-[6-(2-trifluoromethyl-phenyl)-3H-imidazo[4,5-c]pyridin-2-yl]1H-pyrazole-4-carbonitrile hydrochloride] | 98 | 0.027 | –
13 | Cn1nc(C(C)(C)C)c(Cl)c1-c1nc2cc(-c3ccccc3C(F)(F)F)ncc2[nH]1 [Compound 46, 2-(5-tert-Butyl-4-chloro-2-methyl-2H-pyrazol-3-yl)-6-(2-trifluoromethyl-phenyl)-3H-imidazo[4,5-c]pyridine hydrochloride] | 99 | 0.019 | –
14 | Cn1nc(C(C)(C)C)c(C#N)c1-c1nc2cc(-c3ccccc3)ncc2[nH]1 [Compound 47, 3-tert-Butyl-1-methyl-5-(6-phenyl-3H-imidazo[4,5-c]pyridin-2-yl)-1H-pyrazole-4-carbonitrile hydrochloride] | 56 | – | –
15 | Cl.Cn1nc(C(C)(C)C)c(Cl)c1-c1nc2cc(-c3ccccc3F)ncc2[nH]1 [Compound 48, 2-(5-tert-Butyl-4-chloro-2-methyl-2H-pyrazol-3-yl)-6-(2-fluoro-phenyl)-3H-imidazo[4,5-c]pyridine hydrochloride] | – | – | % Inh @ 0.2 μM [4]: 59%
16 | Cn1nc(C(C)(C)C)c(Cl)c1-c1nc2cc(-c3ccccc3C(F)(F)F)nc(OCCN3CCOCC3)c2[nH]1 [Compound 49, 2-(5-tert-Butyl-4-chloro-2-methyl-2H-pyrazol-3-yl)-4-(2-morpholin-4-yl-ethoxy)-6-(2-trifluoromethyl-phenyl)-3H-imidazo[4,5-c]pyridine] | 100 | 0.0064 | –
17 | CN1CCN(CCOc2nc(-c3ccccc3C(F)(F)F)cc3nc(-c4c(Cl)c(C(C)(C)C)nn4C)[nH]c23)CC1 [Compound 50, 2-(5-tert-Butyl-4-chloro-2-methyl-2H-pyrazol-3-yl)-4-[2-(4-methyl-piperazin-1-yl)-ethoxy]-6-(2-trifluoromethyl-phenyl)-3H-imidazo[4,5-c]pyridine] | 91 | 0.056 | –
18 | Cn1nc(C(C)(C)C)c(Cl)c1-c1nc2cc(-c3ccccc3Cl)nc(OCCN3CCCC3)c2[nH]1 [Compound 51, 2-(5-tert-Butyl-4-chloro-2-methyl-2H-pyrazol-3-yl)-6-(2-chloro-phenyl)-4-(2-pyrrolidin-1-yl-ethoxy)-3H-imidazo[4,5-c]pyridine] | 88 | 0.072 | –
19 | Cn1nc(C(C)(C)C)c(Cl)c1-c1nc2cc(-c3ccccc3C(F)(F)F)nc(OCCN3CCCC3)c2[nH]1 [Compound 52, 2-(5-tert-Butyl-4-chloro-2-methyl-2H-pyrazol-3-yl)-4-(2-pyrrolidin-1-yl-ethoxy)-6-(2-trifluoromethyl-phenyl)-3H-imidazo[4,5-c]pyridine] | – | 0.079 | inhibition at 0.2 µM [3]: 80%
20 | CN(C)CCOc1nc(-c2ccccc2C(F)(F)F)cc2nc(-c3c(Cl)c(C(C)(C)C)nn3C)[nH]c12 [Compound 53, {2-[2-(5-tert-Butyl-4-chloro-2-methyl-2H-pyrazol-3-yl)-6-(2-trifluoromethyl-phenyl)-3H-imidazo[4,5-c]pyridin-4-yloxy]-ethyl}-dimethyl-amine] | 99 | 0.027 | –
21 | Cn1nc(C(C)(C)C)c(Cl)c1-c1nc2cc(-c3ccccc3Cl)nc(OCCN3CCOCC3)c2[nH]1 [Compound 54, 2-(5-tert-Butyl-4-chloro-2-methyl-2H-pyrazol-3-yl)-6-(2-chloro-phenyl)-4-(2-morpholin-4-yl-ethoxy)-3H-imidazo[4,5-c]pyridine] | 99 | 0.0042 | –
22 | CN1CCN(CCOc2nc(-c3ccccc3Cl)cc3nc(-c4c(Cl)c(C(C)(C)C)nn4C)[nH]c23)CC1 [Compound 55, 2-(5-tert-Butyl-4-chloro-2-methyl-2H-pyrazol-3-yl)-6-(2-chloro-phenyl)-4-[2-(4-methyl-piperazin-1-yl)-ethoxy]-3H-imidazo[4,5-c]pyridine] | – | 0.054 | inhibition at 0.2 µM [3]: 95%
23 | CN(C)CCOc1nc(-c2ccccc2Cl)cc2nc(-c3c(Cl)c(C(C)(C)C)nn3C)[nH]c12 [Compound 56, {2-[2-(5-tert-Butyl-4-chloro-2-methyl-2H-pyrazol-3-yl)-6-(2-chloro-phenyl)-3H-imidazo[4,5-c]pyridin-4-yloxy]-ethyl}-dimethyl-amine] | 99 | 0.024 | –
24 | Cn1nc(C(C)(C)C)c(Cl)c1-c1nc2cc(-c3ccccc3C(F)(F)F)nc(OCCO)c2[nH]1 [Compound 57, 2-[2-(5-tert-Butyl-4-chloro-2-methyl-2H-pyrazol-3-yl)-6-(2-trifluoromethyl-phenyl)-3H-imidazo[4,5-c]pyridin-4-yloxy]-ethanol] | 101 | 0.0016 | –
25 | Cn1nc(C(C)(C)C)c(Cl)c1-c1nc2cc(-c3ccccc3Cl)nc(OCCO)c2[nH]1 [Compound 58, 2-[2-(5-tert-Butyl-4-chloro-2-methyl-2H-pyrazol-3-yl)-6-(2-chloro-phenyl)-3H-imidazo[4,5-c]pyridin-4-yloxy]-ethanol] | 101 | 0.002 | –
